Assay [1] deals with HIV replication in C8166 cells, virus coding for wild type reverse transcriptase. Kind of assay: microbe, parasite or virus in culture. Particulars: Human immunodeficiency virus 1, 72 h, three days, extracellular p24. The class given is cell-based, HIV-1. The procedure: The compound of the invention was tested for its ability to inhibit HIV replication in cell culture in a 96-well plate assay. Complete RPMI 1640, consisting of RPMI 1640+10% fetal bovine serum, 10 μg/ml gentamycin and 10 μM β-mercaptoethanol was used for dilution of the compound as well as cell growth medium. The T lymphocyte cell line C8166 was infected at a multiplicity of infection of 0.001 with viruses coding for wild type and mutant reverse transcriptase. Cells were then incubated for three days in the presence of serial dilutions of the compound of the invention. The supernatant was pooled from eight replica wells and the concentration of extracellular p24 was determined using a commercially available HIV-1 p24 antigen assay kit (Beckman-Coulter®). The level of inhibition (% inhibition) was calculated with the following equation: [formula]

The target in a further assay is HIV-1 RT wild-type (WT) (Human immunodeficiency virus type 1 group M subtype B, UniProt P03366). Kind of assay: biochemical.

Bounds are passed on as bounds.

From the text for HIV-1 RT wild-type (WT): This activity can be quantitatively measured in a cell-free enzyme assay and is based upon the observation that reverse transcriptase is able to use a synthetic template poly r(C) primed with a biotinylated oligo d(G) to transcribe a radio-labeled DNA strand utilizing 3H-dGTP as a substrate.

Regarding `CCN1c2ncc(CCOc3ccc(C(=O)O)c(C)c3C)cc2C(=O)N(C)c2cccnc21` [Entry 1001], the EC50 (as a rule, the concentration that produces a half-maximal response) in assay [1] was below 50 nM. Moreover, the half-inhibitory concentration (IC50) (as a rule, the point on the concentration scale where inhibition reaches its midpoint) at HIV-1 RT wild-type (WT) was below 50 nM.

Take `CCN1c2ncc(CCOc3ccc(C(=O)O)cc3C)cc2C(=O)N(C)c2cccnc21` [Entry 1002]: in assay [1], the EC50 is below 50 nM. This compound also came in with a 50% inhibitory concentration (IC50) against HIV-1 RT wild-type (WT) below 50 nM. As to `CCc1cc(C(=O)O)ccc1OCCc1cnc2c(c1)C(=O)N(C)c1cccnc1N2CC` [Entry 1003], at HIV-1 RT wild-type (WT), the IC50 is below 50 nM. `CCN1c2ncc(CCOc3ccc(C(=O)O)c(O)c3C)cc2C(=O)N(C)c2cccnc21` [Entry 1004] returned a half-maximal effective concentration (EC50) in assay [1] below 50 nM. At HIV-1 RT wild-type (WT), this compound yielded a half-maximal inhibitory concentration (IC50) below 50 nM. On to `CCN1c2ncc(CCOc3ccc(C(=O)O)cc3Br)cc2C(=O)N(C)c2cccnc21` [Entry 1005], for which, at HIV-1 RT wild-type (WT), the IC50 is below 50 nM. The same measure, in the same setting: for `CCN1c2ncc(CCOc3ccc(C(C)C(=O)O)cc3C)cc2C(=O)N(C)c2cccnc21` (stereo not drawn) [Entry 1006] the value was below 50 nM. `CCN1c2ncc(CCOc3ccc(CCC(=O)O)cc3C)cc2C(=O)N(C)c2ccc(Cl)nc21` [Entry 1007] returned an EC50 in assay [1] below 50 nM. Moreover, the IC50 on HIV-1 RT wild-type (WT) was below 50 nM. In turn, `CCN1c2ncc(CCOc3ccc(CCC(=O)O)cc3C)cc2C(=O)N(C)c2cccnc21` [Entry 1008] yielded an EC50 in assay [1] below 50 nM. At HIV-1 RT wild-type (WT), this compound displayed a half-inhibitory concentration (IC50) below 50 nM. `CCN1c2ncc(CCOc3ccc(C=CC(=O)O)cc3C)cc2C(=O)N(C)c2ccc(Cl)nc21` [Entry 1009] showed an EC50 in assay [1] below 50 nM. In addition, the IC50 at HIV-1 RT wild-type (WT) was below 50 nM. Compound `CCN1c2ncc(CCOc3ccc(C=CC(=O)O)cc3C)cc2C(=O)N(C)c2cccnc21` [Entry 1010] showed an EC50 in assay [1] below 50 nM. At HIV-1 RT wild-type (WT), this compound yielded an IC50 below 50 nM. With `CCN1c2ncc(CCOc3ccc(CC(=O)O)cc3Cl)cc2C(=O)N(C)c2cccnc21` [Entry 1011], the 50% inhibitory concentration (IC50) against HIV-1 RT wild-type (WT) was below 50 nM.

With `CCN1c2ncc(CCOc3ccc(CC(=O)O)cc3Br)cc2C(=O)N(C)c2cccnc21` [Entry 1012], the IC50 on HIV-1 RT wild-type (WT) is below 50 nM.

`CCN1c2ncc(CCOc3ccc(CC(=O)O)c(C)c3C)cc2C(=O)N(C)c2cccnc21` [Entry 1013]: the IC50 at HIV-1 RT wild-type (WT) is below 50 nM. In assay [1], `CCN1c2ncc(CCOc3ccc(CC(=O)O)cc3C)cc2C(=O)N(C)c2cccnc21` [Entry 1014] displayed a concentration for a half-maximal effect (EC50) below 50 nM. Further, at HIV-1 RT wild-type (WT), the half-maximal inhibitory concentration (IC50) is below 50 nM. For the compound `CCN1c2ncc(CCOc3ccc(C(=O)O)cc3C)cc2C(=O)N(C)c2ccc(Cl)nc21` [Entry 1015], the half-maximal inhibitory concentration (IC50) on HIV-1 RT wild-type (WT) is below 50 nM.

`CCN1c2ncc(CCOc3ccc(C(=O)O)cc3C)cc2C(=O)Nc2c(C)cc(Cl)nc21` [Entry 1016]: the 50% inhibitory concentration (IC50) against HIV-1 RT wild-type (WT) is below 50 nM. As to `CCN1c2ncc(CCOc3ccc(C(=O)O)cc3C)cc2C(=O)N(C)c2ccc(C)nc21` [Entry 1017], the concentration for half-maximal inhibition (IC50) at HIV-1 RT wild-type (WT) was below 50 nM. As to `CCN1c2ncc(CCOc3ccc(C(=O)O)cc3C)cc2C(=O)Nc2c(C)ccnc21` [Entry 1018], in assay [1], the EC50 was below 50 nM. On HIV-1 RT wild-type (WT), this compound showed an IC50 below 50 nM. At HIV-1 RT wild-type (WT), `CCN1c2ncc(CCOc3ccc(C(=O)O)cc3C)cc2C(=O)N(C)c2ccc(OC)nc21` [Entry 1019] displayed an IC50 below 50 nM. For `CCN1c2ncc(CCOc3ccc(C(=O)O)cc3C)cc2C(=O)N(C)c2ccc(F)nc21` [Entry 1020], on HIV-1 RT wild-type (WT), the IC50 is below 50 nM. On the same count and under the same terms, for `CCOc1ccc2c(n1)N(CC)c1ncc(CCOc3ccc(C(=O)O)cc3C)cc1C(=O)N2C` [Entry 1021] the value was below 50 nM. In turn, `CCN1c2ncc(CCOc3ccc(C(=O)O)cc3[N+](=O)[O-])cc2C(=O)N(C)c2cccnc21` [Entry 1022] showed a concentration for a half-maximal effect (EC50) in assay [1] of 50 to 100 nM. Also, the IC50 against HIV-1 RT wild-type (WT) was 50 to 100 nM. Compound `CCN1c2ncc(CCOc3ccc(C(=O)O)cc3Cl)cc2C(=O)N(C)c2cccnc21` [Entry 1023] gave a half-maximal effective concentration (EC50) in assay [1] below 50 nM. Also, the half-maximal inhibitory concentration (IC50) against HIV-1 RT wild-type (WT) was 50 to 100 nM. In turn, `CCN1c2ncc(CCOc3ccc(C(=O)O)c(N)c3)cc2C(=O)N(C)c2cccnc21` [Entry 1024] showed a half-inhibitory concentration (IC50) on HIV-1 RT wild-type (WT) below 50 nM. Take `CCN1c2ncc(CCOc3ccc(C(=O)O)c(F)c3)cc2C(=O)N(C)c2cccnc21` [Entry 1025]: on HIV-1 RT wild-type (WT), the IC50 is 50 to 100 nM. Same read-out and setting: for `CCN1c2ncc(CCOc3ccc(C(=O)O)c(Cl)c3)cc2C(=O)N(C)c2cccnc21` [Entry 1026] the value was 50 to 100 nM. On to `CCN1c2ncc(CCOc3ccc(C(=O)O)cc3C(F)(F)F)cc2C(=O)N(C)c2cccnc21` [Entry 1027], for which the IC50 at HIV-1 RT wild-type (WT) was 50 to 100 nM. Regarding `CCN1c2ncc(CCOc3ccc(C(=O)O)cc3C)cc2C(=O)N(C)c2ccc(N(C)C)nc21` [Entry 1028], the half-inhibitory concentration (IC50) on HIV-1 RT wild-type (WT) is below 50 nM. The compound `CCN1c2ncccc2NC(=O)c2cc(CCOc3ccc(C(=O)O)cc3C)cnc21` [Entry 1029] showed a 50% effective concentration (EC50) in assay [1] below 50 nM. Moreover, the half-maximal inhibitory concentration (IC50) against HIV-1 RT wild-type (WT) was below 50 nM.

Take `CCN1c2ncc(CCOc3ccc(C(=O)OC)cc3C)cc2C(=O)N(C)c2cccnc21` [Entry 1030]: the concentration for a half-maximal effect (EC50) in assay [1] is below 50 nM. The IC50 against HIV-1 RT wild-type (WT) is below 50 nM. In the case of `CCc1cc(C(=O)OC)ccc1OCCc1cnc2c(c1)C(=O)N(C)c1cccnc1N2CC` [Entry 1031], at HIV-1 RT wild-type (WT), the half-inhibitory concentration (IC50) was below 50 nM.

`CCN1c2ncc(CCOc3ccc(C(=O)OC)cc3Cl)cc2C(=O)N(C)c2cccnc21` [Entry 1032] had a half-inhibitory concentration (IC50) on HIV-1 RT wild-type (WT) below 50 nM.

In turn, `CCN1c2ncc(CCOc3ccc(C(=O)OC)cc3C(F)(F)F)cc2C(=O)N(C)c2cccnc21` [Entry 1033] yielded an IC50 at HIV-1 RT wild-type (WT) below 50 nM. Same read-out and setting: for `CCOc1ccc2c(n1)N(CC)c1ncc(CCOc3ccc(C(=O)OC)cc3C)cc1C(=O)N2C` [Entry 1034] the value was below 50 nM. For the compound `CCN1c2ncc(CCOc3ccc(C(=O)OC)c(F)c3)cc2C(=O)N(C)c2cccnc21` [Entry 1035], the IC50 at HIV-1 RT wild-type (WT) was below 50 nM.

For the origin of these results see US6706706B2, “Non-nucleoside reverse transcriptase inhibitors” (priority 2002, dated 2004).
